The values that follow come from BindingDB's records for doi:10.7270/Q2C24TWT (Burnham Center For Chemical Genomics, 2010).

SMILES strings stand for the structures.

The target in this experiment is G-protein coupled receptor 35 (Homo sapiens, UniProt Q9HC97). Briefly: NF-kB luciferase suppression after PMA/ionomycin – cell-based, PMA/ionomycin inducer, set 2, SAR follow-up (AID 2792).

The term IC50 denotes the concentration that gives 50% inhibition.

Sequence of G-protein coupled receptor 35 (Q9HC97 whole entry): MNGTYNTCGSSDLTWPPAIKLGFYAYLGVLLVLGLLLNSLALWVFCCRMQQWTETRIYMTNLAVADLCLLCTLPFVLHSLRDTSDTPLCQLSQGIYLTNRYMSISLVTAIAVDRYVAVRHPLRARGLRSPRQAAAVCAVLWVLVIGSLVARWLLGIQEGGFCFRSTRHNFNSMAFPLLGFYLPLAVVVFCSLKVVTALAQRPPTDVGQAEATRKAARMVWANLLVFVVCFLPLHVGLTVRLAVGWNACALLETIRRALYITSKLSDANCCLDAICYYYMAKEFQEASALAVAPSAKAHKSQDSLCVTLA

Consider `CCCn1c(SCC(=O)Nc2nc3c(s2)CCCC3)nc2c1c(=O)n(C)c(=O)n2C` [2-(1,3-Dimethyl-2,6-dioxo-7-propyl-2,3,6,7-tetrahydro-1H-purin-8-ylsulfanyl)-N-(4,5,6,7-tetrahydro-benzothiazol-2-yl)-acetamide], for which half-maximal inhibition (IC50) required 17.8 µM.

Take `CCCCn1c(CN2CCN(c3cccc(Cl)c3)CC2)nc2c1c(=O)n(C)c(=O)n2C` [MLS-0004183.0001]: half-maximal inhibition (IC50) was put at 3.51 µM.
